From paper PMC6130872, “Plasmodium vivax Pv12 B-cell epitopes and HLA-DRβ1*-dependent T-cell epitopes in vitro antigenicity” (PLoS ONE, 2018) come the findings set out here.

No end group written: not given here. Some results are limits rather than exact numbers.

In one assay the target is T1, HLA-DRβ1*1101 (Homo sapiens, UniProt P01903+P01911, A100R/A169T/A87E/I96F/K41T/L162R/M171V/P40S/Q125H/Q178H/Q39Y/Q99D/R42S/S66Y/T262R/V115G/W38E).
T1 construct: endogenous in cells; host or cells: IHW09043 homozygous lymphoblastoid B-cell line (IHWG)
T1 sequence (P01903 26-254, other chains not shown): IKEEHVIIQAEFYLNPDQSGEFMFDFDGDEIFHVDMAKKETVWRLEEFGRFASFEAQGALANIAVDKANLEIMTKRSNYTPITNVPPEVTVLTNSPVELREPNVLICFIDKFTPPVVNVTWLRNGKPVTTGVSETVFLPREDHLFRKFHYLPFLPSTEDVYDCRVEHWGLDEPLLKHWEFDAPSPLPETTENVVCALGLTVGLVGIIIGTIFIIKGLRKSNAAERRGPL
In words: biochemical. Type of assay: binding. As to conditions: for inhibition at 250 µM: 24 h, read-out: Binding percentage; for IC50: DRβ1*1101, 50% displacement of biotinylated HA, 4.2 to 250 μM serial dilutions, second order exponential decay fit.

In the next assay the target is HLA-DRβ1*0701 (Homo sapiens, UniProt P01903+P01911, A100R/A102G/A103Q/D57E/D86V/E43K/F76Y/K127E/L162R/M171V/P40G/Q125H/Q99D/R33Q/R42Y/R54Q/S133A/S66F/T210M/V115G/Y107V/Y59L/Y89S). In words: biochemical. It counts as binding. As to conditions: for inhibition at 250 µM: 24 h, read-out: Binding percentage; for IC50: 50% displacement of biotinylated TT, 4.2 to 250 μM serial dilutions, second order exponential decay fit.

In the next assay the target is HLA-DRβ1*1302 (Homo sapiens, UniProt P01903+P01911, A100E/A169T/K41T/L162R/M171V/P40S/Q125H/Q178H/Q39Y/Q99D/R42S/S66N/T262R/V115G/W38E/Y61H). In words: biochemical. It counts as binding. As to conditions: for inhibition at 250 µM: 24 h, read-out: Binding percentage; for IC50: 50% displacement of biotinylated TT, 4.2 to 250 μM serial dilutions, second order exponential decay fit.
HLA-DRβ1*1302, sequence (P01903 26-254 limits assumed, other chains not shown): as the sequence (P01903 26-254, other chains not shown) above

Another assay has as its target T2, HLA-DRβ1*0401 (Homo sapiens, UniProt P01903+P01911, A100K/A169T/F76Y/I96L/K127E/L162R/M171V/N62H/P40V/Q125Y/R42H/S133A/S149N/S66Y/V115G/V209L/W38E).
T2 construct: endogenous in cells; host or cells: IHW09025 homozygous lymphoblastoid B-cell line (IHWG)
As to the kind of experiment: In vitro HLA-DRβ1 binding assay (competitive ELISA, biotinylated control peptide displacement). The settings on record: for inhibition at 250 µM: 24 h, read-out: Binding percentage; for IC50: DRβ1*0401, 50% displacement of biotinylated HA, 4.2 to 250 μM serial dilutions, second order exponential decay fit. In general terms: In an ELISA, binding on a coated surface is turned into a signal by an enzyme label.

In assay [1] the test system is CD4+ T-lymphocytes (PBMCs). In words: Lymphoproliferation assay (CFSE, flow cytometry). It counts as cell-based, human. How it is done:
P. vivax-exposed individuals and control group PB samples were taken and placed in citrate phosphate dextrose (CPD) solution in Vacutainer tubes (BD Vacutainer); 40 mL blood was used to obtain PBMCs from gradient centrifugation with Ficoll-Paque PLUS (GE Healthcare) to evaluate the proliferative response against Pv12 peptides.
Two hundred thousand (2 x 10^5) PBMCs per well were seeded in 96-well round-bottomed plates (Costar, Corning Incorporated) in RPMI 1640 medium (Gibco) supplemented with inactivated 10% autologous plasma, 2 g/L sodium bicarbonate, 2 mM L-glutamine, 1 mM sodium pyruvate and100 U/mL Antibiotic-Antimycotic solution (all Gibco). The PBMCs were labelled with carboxyfluorescein diacetate N-succinimidyl ester (CFSE) (5μM) (CellTrace CFSE cell proliferation kit, Molecular Probes, Eugene, OR, USA) and stimulated with each peptide at 10 μg/mL final concentration.
Control PBMCs were stimulated with 5 μg/mL parasite lysate and 2% phytohaemagglutinin (PHA) (Sigma) as positive controls. Low binding peptide (LBP) 39115 was used as negative control in experimental binding assays and a well containing PBMCs with just medium (unstimulated) was used as assay control. The cells were cultured at 37°C in a 5% CO2 atmosphere for 96 hours; assays were carried out in duplicate. Pacific Blue-labelled mouse anti-human CD4 (RPA-T4 clone) (BD Biosciences) antibody was then used for labelling the cells which were read on a FACS Canto II flow cytometer (BD Biosciences). FlowJo software v7.6.5 (FlowJo, LLC) was used for analysing the data and CD4^+ T-lymphocyte proliferation.
Cell proliferation was calculated by relative loss regarding CFSE fluorescence intensity, calculated as the percentage of fluorescence intensity of cells co-cultured with antigen divided by the percentage of co-cultured cells’ fluorescence intensity in the absence of antigen. The results were expressed as stimulation index (SI); a ≥2 value was considered positive.
CD4+ lymphocyte mean fluorescence intensity (MFI) values were used for additional analysis. Cell proliferation was calculated as the stimulation rate, where the unstimulated CD4+ T-cell population MFI was divided by the stimulated CD4+ T-cell population’s MFI. MFI becomes less as the antigen stimulates CD4+ T-lymphocytes, whereby ≥1 values indicate cell proliferation. The relative value of proliferation was considered positive, with at least 1% loss in the mean intensity of florescence of the CD4+ population, i.e. ≥1.01.
A general note: In flow cytometry, cells or beads pass a laser one at a time.

Where [2] appears, read: 0.1 μM purified molecule, 5 μM biotinylated TT, 250 μM test peptide, 24 h RT, OD 405 nm.

By IC50 is commonly meant the concentration that gives 50% inhibition. Read a low IC50 as inhibition by little substance. On to EECFLQGFNLSGKKE [Peptide 39113], for which the inhibition at 250 µM came to 62.9% on HLA-DRβ1*1101, 8.89% on HLA-DRβ1*0701 (setting [2]), 9.28% at HLA-DRβ1*1302 (setting [2]) and 95.8% at HLA-DRβ1*0401. For the same substance, the IC50 on HLA-DRβ1*1101 was 38.5 µM; on HLA-DRβ1*0401, 7.36 µM.
For GCDFTKNTSPLFTKG [Peptide 39119], the inhibition at 250 µM on HLA-DRβ1*1101 was 26.9%; at HLA-DRβ1*0701 (setting [2]) it was 29.4%; on HLA-DRβ1*1302 (setting [2]), 92.2%; at HLA-DRβ1*0401 it was 17.4%. At HLA-DRβ1*1302, this substance gave a half-inhibitory concentration (IC50) of 7.47 µM.
Consider KKSYDDVSFRVPPNL [Peptide 39115], for which the Binding percentage at HLA-DRβ1*1101 is recorded as 20.02%; on HLA-DRβ1*0701 (setting [2]), 9.86%; at HLA-DRβ1*1302 (setting [2]) it was 12.00%; on HLA-DRβ1*0401 it was 12.98%. In addition, the “control group response (responders/8)” value in assay [1] (control group, n = 8) was 0/8. Moreover, the “frequency of response (responders, SI ≥2)” value in assay [1] (exposed individuals) is on record as 28%. Also, the “stimulation index (SI), average response” value in assay [1] (exposed individuals, peptide 10 μg/mL, lysate 5 μg/mL, 96 h, CFSE, SI ≥2 positive) was 2.018. Also, in assay [1] (exposed individuals, positive ≥1.01), the “responders according to relative proliferation values (MFI)” value was 50%.
In the case of KRLVAHFEFATTPDD [Peptide 39122], the inhibition at 250 µM on HLA-DRβ1*1101 was found to be 74.9%; on HLA-DRβ1*0701 (setting [2]) it was 23.1%; at HLA-DRβ1*1302 (setting [2]), 71.1%; on HLA-DRβ1*0401, 80.9%. Further, the concentration for half-maximal inhibition (IC50) turned out to be 170 µM on HLA-DRβ1*1101 and 58.9 µM at HLA-DRβ1*0401.
Take LGIIEVLIPSLPKKI [Peptide 39117]: the inhibition at 250 µM at HLA-DRβ1*1101 is 51.1%; on HLA-DRβ1*0701 (setting [2]) it was 98.6%; at HLA-DRβ1*1302 (setting [2]) it was 95.4%; on HLA-DRβ1*0401 it was 33.1%. The IC50 is 134 µM at HLA-DRβ1*1101, 11.5 µM on HLA-DRβ1*0701 and 6.65 µM at HLA-DRβ1*1302.
Turning to LTDLVMDHYNKIFYA [Peptide 39120], the inhibition at 250 µM at HLA-DRβ1*1101 was 32.7%; at HLA-DRβ1*0701 (setting [2]), 40.6%; on HLA-DRβ1*1302 (setting [2]), 86%; at HLA-DRβ1*0401 it was 26.7%. For the same substance, the 50% inhibitory concentration (IC50) on HLA-DRβ1*1302 worked out at 38 µM.
On to LVEYLHGAAAIVKRK [Peptide 39118], for which the inhibition at 250 µM was 48.2% on HLA-DRβ1*1101, 90% on HLA-DRβ1*0701 (setting [2]), 31.7% on HLA-DRβ1*1302 (setting [2]) and 13.5% on HLA-DRβ1*0401. Besides, the IC50 at HLA-DRβ1*0701 was found to be 15.2 µM.
Consider RKNYELLPNNCFEQV [Peptide 39112], for which the inhibition at 250 µM at HLA-DRβ1*1101 turned out to be 55.4%; on HLA-DRβ1*0701 (setting [2]) it was 76.4%; at HLA-DRβ1*1302 (setting [2]) it was 14.1%; at HLA-DRβ1*0401, 95.8%. Further, the half-maximal inhibitory concentration (IC50) on HLA-DRβ1*0701 was determined as 29.2 µM; at HLA-DRβ1*0401, 7.26 µM.
YNKIFYARVPQRIYQ [Peptide 39114]: the IC50 was 8.28 µM at HLA-DRβ1*1101, 43.1 µM on HLA-DRβ1*0701, 73.3 µM on HLA-DRβ1*1302 and 43.2 µM on HLA-DRβ1*0401. On HLA-DRβ1*1302 (setting [2]), the inhibition at 250 µM is not below 50%.
For the substance “phytohaemagglutinin [PHA, reference compound]”, the “control group individuals responding” value in assay [1] (control group) is 100%. Also, the “frequency of response (responders, SI ≥2)” value in assay [1] (exposed individuals) is listed as 96.6%.
